In this test the target is human PDE10A (Homo sapiens (Human), UniProt Q9Y233). Put plainly: human PDE10A full length assay ([3H]-cGMP SPA). The format is biochemical. The following applies: full length PDE10A enzyme, 50 nM cGMP + 50 nM [3H]-cGMP, 20 minutes at room temperature; read-out: PDE10A inhibition IC50. As to the method:
The human PDE10A full length assay was performed in 96-well micro titer plates. The reaction mixture of 50 μl contained 20 mM HEPES pH=7.5/10 mM MgCl2/0.05 mg/ml BSA (Sigma cat. #A-7906), 50 nM cGMP (Sigma, cat. #G6129) and 50 nM [3H]-cGMP (GE Healthcare, cat. #TRK392 S.A. 13.2 Ci/mmol), 3.75 ng/well PDE10A enzyme (Enzo Life Science, Lausen, Switzerland cat #SE-534) with or without a specific test compound. A range of concentrations of the potential inhibitor was used to generate data for calculating the concentration of inhibitor resulting in 50% of the effect (e.g. IC50, the concentration of the competitor inhibiting PDE10A activity by 50%). Non-specific activity was tested without the enzyme. The reaction was initiated by the addition of the substrate solution (cGMP and [3H]-cGMP) and allowed to progress for 20 minutes at room temperature. The reaction was terminated by adding 25 μl of YSi-SPA scintillation beads (GE Healthcare, cat. # RPNQ0150) in 18 mM zinc sulphate solution (stop reagent). After 1 h under shaking, the plate was centrifuged one minute at 170 g to allow beads to settle. Afterwards, radioactive counts were measured on a Perkin Elmer TopCount Scintillation plate reader.

Chain of human PDE10A (Q9Y233 other isoform, or with tags, fused parts or gaps): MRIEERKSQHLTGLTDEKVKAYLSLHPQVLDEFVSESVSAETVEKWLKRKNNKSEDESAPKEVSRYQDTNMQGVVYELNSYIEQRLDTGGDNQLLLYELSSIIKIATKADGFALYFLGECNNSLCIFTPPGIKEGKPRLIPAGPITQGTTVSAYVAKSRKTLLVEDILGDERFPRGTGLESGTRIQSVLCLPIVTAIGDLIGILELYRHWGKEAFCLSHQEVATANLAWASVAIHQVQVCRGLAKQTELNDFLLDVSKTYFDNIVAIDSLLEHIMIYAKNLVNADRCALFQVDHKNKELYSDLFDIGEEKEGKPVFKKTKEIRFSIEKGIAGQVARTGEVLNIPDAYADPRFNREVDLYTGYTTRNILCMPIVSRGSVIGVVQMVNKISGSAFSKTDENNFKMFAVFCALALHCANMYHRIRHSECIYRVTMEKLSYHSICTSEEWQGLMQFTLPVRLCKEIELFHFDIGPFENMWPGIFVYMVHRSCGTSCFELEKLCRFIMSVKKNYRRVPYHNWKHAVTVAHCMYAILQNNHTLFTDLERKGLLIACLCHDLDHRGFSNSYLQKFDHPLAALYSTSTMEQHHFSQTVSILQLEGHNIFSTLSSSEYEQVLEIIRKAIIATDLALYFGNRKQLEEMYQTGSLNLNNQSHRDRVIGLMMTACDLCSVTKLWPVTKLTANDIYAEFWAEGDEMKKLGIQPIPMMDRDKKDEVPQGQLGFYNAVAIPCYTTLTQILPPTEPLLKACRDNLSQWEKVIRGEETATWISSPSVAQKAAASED

As for “1-{2-[(E)-2-{4,7-Dimethyl-[1,2,4]triazolo[1,5-a]pyrazin-2-yl}ethenyl]-1-phenyl-1H-imidazol-4-yl}pyrrolidin-2-one [Example 20]”, the IC50 was 19.4 nM.

Take `Cc1cnc(C)n2nc(CCc3nc(N4CCCC4=O)cn3C)nc12` [Example 1, 1-(2-(2-(5,8-dimethyl-[1,2,4]triazolo[1,5-c]pyrimidin-2-yl)ethyl)-1-methyl-1H-imidazol-4-yl)pyrrolidin-2-one]: the IC50 turned out to be 39 nM.

`Cc1ncc(C)n2nc(CCc3nc(N4CCCC4=O)cn3-c3ccccc3)nc12` [Example 2, 1-(2-(2-(5,8-dimethyl-[1,2,4]triazolo[1,5-a]pyrazin-2-yl)ethyl)-1-phenyl-1H-imidazol-4-yl)pyrrolidin-2-one]: the IC50 stood at 1.3 nM.

With `Cc1ncc(C)n2nc(/C=C/c3nc(N4CCCC4=O)cn3-c3ccccc3)nc12` [Example 3], the IC50 was found to be 9.5 nM.

Regarding `Cc1ncc(C)n2nc(CCc3nc(-n4ccccc4=O)cn3CC3CC3)nc12` [Example 4, 1-(1-(Cyclopropylmethyl)-2-(2-(5,8-dimethyl-[1,2,4]triazolo[1,5-a]pyrazin-2-yl)ethyl)-1H-imidazol-4-yl)pyridin-2(1H)-one], the IC50 stood at 150 nM.

For the compound `Cc1ncc(C)n2nc(CCc3nc(-n4ccccc4=O)cn3C)nc12` [Example 5, 1-(2-(2-(5,8-dimethyl-[1,2,4]triazolo[1,5-a]pyrazin-2-yl)ethyl)-1-methyl-1H-imidazol-4-yl)pyridin-2(1H)-one], the IC50 amounted to 195 nM.

For the compound `Cc1ncc(C)n2nc(/C=C/c3nc(N4CCCC4=O)cn3C3CC3)nc12` [Example 6, 1-[1-cyclopropyl-2-[(E)-2-(5,8-dimethyl-[1,2,4]triazolo[1,5-a]pyrazin-2-yl)ethenyl]imidazol-4-yl]pyrrolidin-2-one], the IC50 turned out to be 81 nM.

Turning to `Cc1ncc(C)n2nc(CCc3nc(N4CCCC4=O)cn3C3CC3)nc12` [Example 7, 1-{1-Cyclopropyl-2-[2-(5,8-dimethyl-[1,2,4]triazolo[1,5-a]pyrazin-2-yl)-ethyl]-1H-imidazol-4-yl}-pyrrolidin-2-one], the 50% inhibitory concentration (IC50) was determined as 27 nM.

Regarding `Cc1ncc(C)n2nc(/C=C/c3nc(N4CCN(C)C4=O)cn3C)nc12` [Example 8, 2′-[(E)-2-(5,8-Dimethyl-[1,2,4]triazolo[1,5-a]pyrazin-2-yl)-vinyl]-3, 1′-dimethyl-4,5-dihydro-3H, 1′H-[1,4′]biimidazolyl-2-one], the IC50 stood at 162 nM.

Turning to `Cc1nc(C#Cc2nc(N3CCCC3=O)cn2C)nc2c(C)cccc12` [Example 9, 1-(2-((4,8-dimethylquinazolin-2-yl)ethynyl)-1-methyl-1H-imidazol-4-yl)pyrrolidin-2-one], the IC50 is 4.6 nM.

Take `Cc1ncc(C)n2nc(/C=C/c3nc(N4CCCC4=O)cn3C)nc12` [Example 10, 1-{2-[(E)-2-{4,7-dimethyl-[1,2,4]triazolo[1,5-a]pyrazin-2-yl}ethenyl]-1-methyl-1H-imidazol-4-yl}pyrrolidin-2-one]: the IC50 came out at 54.6 nM.

With `Cc1ncc(C)n2nc(CCc3nc(N4CCCC4=O)cn3C)nc12` [Example 11, 1-[2-(2-{4,7-Dimethyl-[1,2,4]triazolo[1,5-a]pyrazin-2-yl}ethyl)-1-methyl-1H-imidazol-4-yl]pyrrolidin-2-one], the IC50 was found to be 18 nM.

Regarding `Cc1ncc(C)n2nc(CCc3nc(N4CCCC4=O)cn3CC3CC3)nc12` [Example 12, 1-[1-(Cyclopropylmethyl)-2-(2-{4,7-dimethyl-[1,2,4]triazolo[1,5-a]pyrazin-2-yl}ethyl)-1H-imidazol-4-yl]pyrrolidin-2-one], the IC50 stood at 16.9 nM.

On to `Cc1ncc(C)n2nc(CCc3nc(N4CCCC4=O)cn3CC(F)(F)F)nc12` [Example 13, 1-[2-(2-{4,7-Dimethyl-[1,2,4]triazolo[1,5-a]pyrazin-2-yl}ethyl)-1-(2,2,2-trifluoroethyl)-1H-imidazol-4-yl]pyrrolidin-2-one], for which the IC50 amounted to 36.7 nM.

With `Cc1ncc(C)n2nc(CCc3nc(N4CCCC4=O)cn3CC(F)F)nc12` [Example 14, 1-[1-(2,2-difluoroethyl)-2-(2-{4,7-dimethyl-[1,2,4]triazolo[1,5-a]pyrazin-2-yl}ethyl)-1H-imidazol-4-yl]pyrrolidin-2-one], the IC50 turned out to be 46.9 nM.

As to `Cc1ncc(C)n2nc(C#Cc3nc(N4CCCC4=O)cn3C)nc12` [Example 15, 1-[2-(2-{4,7-Dimethyl-[1,2,4]triazolo[1,5-a]pyrazin-2-yl}ethynyl)-1-methyl-1H-imidazol-4-yl]pyrrolidin-2-one], the IC50 amounted to 29 nM.

For `Cc1cnc(C)n2nc(CCc3nc(N4CCCC4=O)cn3CC3CC3)nc12` [Example 16, 1-[1-(Cyclopropylmethyl)-2-(2-{5,8-dimethyl-[1,2,4]triazolo[1,5-c]pyrimidin-2-yl}ethyl)-1H-imidazol-4-yl]pyrrolidin-2-one], the IC50 is 14.8 nM.

As for `Cc1cnc(C)n2nc(CCc3nc(N4CCCC4=O)cn3-c3ccccc3)nc12` [Example 17, 1-[2-[2-(5,8-dimethyl-[1,2,4]triazolo[1,5-c]pyrimidin-2-yl)ethyl]-1-phenyl-imidazol-4-yl]pyrrolidin-2-one], the IC50 worked out at 3.2 nM.

For the compound `Cc1cnc(C)n2nc(CCc3nc(N4CCCC4=O)cn3CC(F)(F)F)nc12` [Example 18, 1-[2-(2-{5,8-dimethyl-[1,2,4]triazolo[1,5-c]pyrimidin-2-yl}ethyl)-1-(2,2,2-trifluoroethyl)-1H-imidazol-4-yl]pyrrolidin-2-one], the IC50 is 168 nM.

Turning to `Cc1cnc(C)n2nc(CCc3nc(N4CCCC4=O)cn3CC(F)F)nc12` [Example 19, 1-[1-(2,2-difluoroethyl)-2-(2-{5,8-dimethyl-[1,2,4]triazolo[1,5-c]pyrimidin-2-yl}ethyl)-1H-imidazol-4-yl]pyrrolidin-2-one], the IC50 was determined as 26.8 nM.

`Cc1cc(C)n2nc(CCc3nc(N4CCCC4=O)cn3C)nc2n1` [Example 21, 1-[2-(2-{5,7-dimethyl-[1,2,4]triazolo[1,5-a]pyrimidin-2-yl}ethyl)-1-methyl-1H-imidazol-4-yl]pyrrolidin-2-one]: the IC50 turned out to be 176 nM.

For the compound `Cc1c(C(F)(F)F)nc2ccc(CCc3nc(N4CCCC4=O)cn3C)nn12` [Example 22, 1-(1-Methyl-2-{2-[3-methyl-2-(trifluoromethyl)imidazo[1,2-b]pyridazin-6-yl]ethyl}-1H-imidazol-4yl) pyrrolidin-2-one], the IC50 came out at 117 nM.

With `Cc1c(C(F)(F)F)nc2ccc(CCc3nc(N4CCCC4=O)cn3-c3ccccc3)nn12` [Example 23, 1-(2-{2-[3-Methyl-2-(trifluoromethyl)imidazo[1,2-b]pyridazin-6-yl]ethyl}-1-phenyl-1H-imidazol-4yl)pyrrolidin-2-one], the IC50 was determined as 3.1 nM.

Regarding `Cc1c(C(F)(F)F)nc2ccc(C#Cc3nc(N4CCCC4=O)cn3C)nn12` [Example 24, 1-(1-Methyl-2-{2-[3-methyl-2-(trifluoromethyl)imidazo[1,2-b]pyridazin-6-yl]ethynyl}-1H-imidazol-4-yl)pyrrolidin-2-one], the IC50 is 75.5 nM.

Turning to `Cc1c(C(F)(F)F)nc2ccc(C#Cc3nc(N4CCCC4=O)cn3-c3ccccc3)nn12` [Example 25, 1-(2-{2-[3-methyl-2-(trifluoromethyl)imidazo[1,2-b]pyridazin-6-yl]ethynyl}-1-phenyl-1H-imidazol-4-yl) pyrrolidin-2-one], the IC50 stood at 21.9 nM.

For `CNC(=O)c1cc(CCc2nc(N3CCCC3=O)cn2C)nn2c(C)c(C(F)(F)F)nc12` [Example 26], the IC50 worked out at 112 nM.

For the compound `CNC(=O)c1cc(CCc2nc(N3CCCC3=O)cn2-c2ccccc2)nn2c(C)c(C(F)(F)F)nc12` [Example 27, N,3-Dimethyl-6-{2-[4-(2-oxopyrrolidin-1-yl)-1-phenyl-1H-imidazol-2-yl]ethyl}-2-(trifluoromethyl)imidazo[1,2-b]pyridazine-8-carb oxamide], the IC50 was found to be 2.9 nM.

One may read the IC50 as the midpoint of a concentration-inhibition curve.

(Values after patent publication US9586970B2, “Imidazole derivatives” (Hoffmann-La Roche Inc., priority 2014, dated 2017).)
